According to US12502362B2, “Inhibitors of nucleotidyltransferase superfamily enzymes as antibiotics” (priority 2017, dated 2025):
Converted amounts (≈) assume the structure as drawn.

Columns and labels:
[1] = test system: Acinetobacter baumannii (Abl, from a patient); assay: microbe, parasite or virus in culture; assay type: cell-based; conditions: Acinetobacter baumannii, read-out: MIC80 A. baumannii, A. baumannii Ab1, MDR patient isolate
E. coli (ATCC 35218) = assay: microbe, parasite or virus in culture; assay type: cell-based; conditions: for MIC80: Escherichia coli, ATCC35218, read-out: MIC80 E. coli, E. coli ATCC 35218
[2] = test system: Coagulase negative Staphylococcus; assay: MIC80 on coagulase negative Staphylococcus; assay type: cell-based
Description: (§1) To further characterize the compounds, the minimal inhibitory concentration (MIC80) were determined for selected compounds. MIC80 is defined as the compound concentration at which ≥80% bacterial growth is inhibited compare to untreated controls. Meanwhile, for the selected compounds, cytotoxicity assays (CC50) were performed on a HepG2-derived hepatoblastoma cell line (HEPDES19). […] For the MIC80 measurements, a 1.5 fold dilution series of the compounds was prepared in Mueller-Hinton II broth. […] For CC50 evaluation, soluble tetrazolium dye (MTS) was used to measure mitochondrial toxicity in a human hepatoblastoma cell line (18). The bacteria (E. coli, S. saprophyticus and A. baumannii) used in MIC80 measurements were the same as that in the primary screening, but for Staphylococcus, S. aureus is used primarily because it is a common pathogen in Staphylococcaeae family, while S. saprophyticus is part of the normal human flora. S. aureus (ATCC 29213) is methicillin-sensitive Staphylococcus aureus (MSSA) strain and it was used as a model strain to measure the MIC80.
(§2) It was also tested whether compounds #63 and #285 can inhibit other coagulase-negative Staphylococcus (CNS) including S. epidermidis, S. hominis, etc. […] .

[3] = test system: S. aureus and/or S. saprophyticus; assay: MIC80 on S. aureus and/or S. saprophyticus; assay type: cell-based; conditions: read-out: MIC80 against S. aureus and/or S. saprophyticus
Description: as §1

[4] = test system: S. aureus ATCC strains and methicillin-resistant Staphylococcus aureus (MRSA); assay: MIC80 on S. aureus ATCC strains and MRSA; assay type: cell-based
Description: (§3) To further characterize the compounds, the minimal inhibitory concentration (MIC80) were determined for selected compounds. MIC80 is defined as the compound concentration at which ≥80% bacterial growth is inhibited compare to untreated controls. Meanwhile, for the selected compounds, cytotoxicity assays (CC50) were performed on a HepG2-derived hepatoblastoma cell line (HEPDES19). […] For CC50 evaluation, soluble tetrazolium dye (MTS) was used to measure mitochondrial toxicity in a human hepatoblastoma cell line (18). The bacteria (E. coli, S. saprophyticus and A. baumannii) used in MIC80 measurements were the same as that in the primary screening, but for Staphylococcus, S. aureus is used primarily because it is a common pathogen in Staphylococcaeae family, while S. saprophyticus is part of the normal human flora.

S. aureus (ATCC 29213) = assay: MIC80 on S. aureus; assay type: cell-based, Staphylococcus aureus; conditions: Staphylococcus aureus, ATCC 29213 / MSSA, read-out: MIC80 S. aureus, S. aureus ATCC 29213 (MSSA); ≥80% growth inhibition
[5] = test system: HepG2-derived hepatoblastoma cell line (HEPDES19); assay: Cytotoxicity assay (CC50), MTS; assay type: cell-based, human; conditions: HEPDES19 cells
Description: as §3

[6] = Cytotoxicity assay (CC50), MTS; assay type: cell-based, human; conditions: human, HepG2-derived hepatoblastoma cell line (HEPDES19), HEPDES19 cells
Description: as §3

[7] = test system: Staphylococcus epidermidis; assay: MIC80 on S. epidermidis; assay type: cell-based
Description: as §1, §2

Staphylococcus hominis = assay: MIC80 on S. hominis; assay type: cell-based
Description: as §1, §2

[8] = test system: Staphylococcus saprophyticus (ATCC BAA-750); assay: MIC80 on S. saprophyticus; assay type: cell-based; conditions: Staphylococcus saprophyticus, ATCCBAA750; S. saprophyticus ATCC BAA-750; read-out: MIC80 S. sapro
Description: as §3

Morganella morganii = assay: microbe, parasite or virus in culture; assay type: cell-based; conditions: Morganella morganii
Description: as §3
(§4) All these MDR-bacteria are at least resistant to two classes of the antibiotics among five groups and/or specific antibiotics including quinolones/fluorquinolones, carbapenems, cephalosporins, aminoglycosides and piperacillin-tazobactam.

MDR Enterobacteriaceae = assay: microbe, parasite or virus in culture; assay type: cell-based; conditions: Escherichia coli, read-out: MIC80 on MDR Enterobacteriaceae
Description: as §3, §4

[9] = test system: Enterobacter cloacae complex; assay: microbe, parasite or virus in culture; assay type: cell-based; conditions: Enterobacter cloacae
Description: as §3, §4

MDR E. coli = assay: microbe, parasite or virus in culture; assay type: cell-based; conditions: Escherichia coli
Description: as §3, §4

Klebsiella pneumoniae = assay: microbe, parasite or virus in culture; assay type: cell-based; conditions: Klebsiella pneumoniae
Description: as §3, §4

Citrobacter koseri = assay: microbe, parasite or virus in culture; assay type: cell-based; conditions: Citrobacter koseri
Description: as §3, §4

O=C(Oc1cccccc1=O)c1ccc(Cl)cc1 [Compound 63]
MIC80 [1]: 83.4 µM (≈ 21.7 µg/mL) | MIC80 (E. coli (ATCC 35218)): 111 µM (≈ 29 µg/mL) | MIC80 ([2]; CNS1 (Coagulase negative Staphylococcus)): 13.2 µM (≈ 3.44 µg/mL) | MIC80 ([2]; CNS2 (Coagulase negative Staphylococcus)): 5.9 µM (≈ 1.54 µg/mL) | MIC80 [3]: < 20 µM | MIC80 ([4]; ATCC 25923 / MRSA, S. aureus ATCC 25923): 8.8 µM (≈ 2.29 µg/mL) | MIC80 ([4]; ATCC 29213 / MRSA, S. aureus ATCC 29213 (Table 3)): 8.8 µM (≈ 2.29 µg/mL) | MIC80 ([4]; BAA-976 / MRSA, S. aureus ATCC BAA 976): 13.2 µM (≈ 3.44 µg/mL) | MIC80 ([4]; BAA-977 / MRSA, S. aureus ATCC BAA 977): 8.8 µM (≈ 2.29 µg/mL) | MIC80 ([4]; MRSA, Sa1 (MRSA)): 8.8 µM (≈ 2.29 µg/mL) | MIC80 ([4]; MRSA, Sa2 (MRSA)): 8.8 µM (≈ 2.29 µg/mL) | MIC80 ([4]; MRSA, Sa3 (MRSA)): 8.8 µM (≈ 2.29 µg/mL) | MIC80 ([4]; MRSA, Sa5 (MRSA)): 8.8 µM (≈ 2.29 µg/mL) | MIC80 ([4]; MRSA, Sa6 (MRSA)): 8.8 µM (≈ 2.29 µg/mL) | MIC80 ([4]; MRSA, Sa7 (MRSA)): 8.8 µM (≈ 2.29 µg/mL) | MIC80 ([4]; MRSA, Sa8 (MRSA)): 8.8 µM (≈ 2.29 µg/mL) | MIC80 ([4]; MRSA, Sa9 (MRSA)): 8.8 µM (≈ 2.29 µg/mL) | MIC80 ([4]; MRSA, Sa10 (MRSA)): 8.8 µM (≈ 2.29 µg/mL) | MIC80 ([4]; MRSA, Sa11 (MRSA)): 8.8 µM (≈ 2.29 µg/mL) | MIC80 ([4]; MRSA, Sa12 (MRSA)): 8.8 µM (≈ 2.29 µg/mL) | MIC80 ([4]; MRSA, Sa14 (MRSA)): 8.8 µM (≈ 2.29 µg/mL) | MIC80 ([4]; MRSA, Sa15 (MRSA)): 8.8 µM (≈ 2.29 µg/mL) | MIC80 ([4]; MRSA, Sa16 (MRSA)): 8.8 µM (≈ 2.29 µg/mL) | MIC80 ([4]; MRSA, Sa17 (MRSA)): 8.8 µM (≈ 2.29 µg/mL) | MIC80 ([4]; MRSA, Sa18 (MRSA)): 8.8 µM (≈ 2.29 µg/mL) | MIC80 ([4]; MRSA, Sa19 (MRSA)): 8.8 µM (≈ 2.29 µg/mL) | MIC80 ([4]; MRSA, Sa20 (MRSA)): 8.8 µM (≈ 2.29 µg/mL) | MIC80 ([4]; MRSA, Sa21 (MRSA)): 8.8 µM (≈ 2.29 µg/mL) | MIC80 ([4]; MRSA, Sa22 (MRSA)): 8.8 µM (≈ 2.29 µg/mL) | MIC80 ([4]; MRSA, Sa23 (MRSA)): 8.8 µM (≈ 2.29 µg/mL) | MIC80 (S. aureus (ATCC 29213)): 16.5 µM (≈ 4.3 µg/mL) | CC50 [5]: ≥ 100 µM | CC50 [6]: > 50 µM | MIC80 ([7]; Se1 (Staphylococcus epidermidis)): 8.8 µM (≈ 2.29 µg/mL) | MIC80 ([7]; Se2 (Staphylococcus epidermidis)): 8.8 µM (≈ 2.29 µg/mL) | MIC80 ([7]; Se3 (Staphylococcus epidermidis)): 8.8 µM (≈ 2.29 µg/mL) | MIC80 ([7]; Se4 (Staphylococcus epidermidis)): 8.8 µM (≈ 2.29 µg/mL) | MIC80 ([7]; Se5 (Staphylococcus epidermidis)): 8.8 µM (≈ 2.29 µg/mL) | MIC80 (Staphylococcus hominis; Sh1 (Staphylococcus hominis)): 8.8 µM (≈ 2.29 µg/mL) | MIC80 (Staphylococcus hominis; Sh2 (Staphylococcus hominis)): 13.2 µM (≈ 3.44 µg/mL) | MIC80 (Staphylococcus hominis; Sh3 (Staphylococcus hominis)): 8.8 µM (≈ 2.29 µg/mL) | MIC80 [8]: 9.2 µM (≈ 2.4 µg/mL)

Cc1ccc(C(=O)Sc2cccccc2=O)cc1 [Compound 284]
MIC80 (Morganella morganii): 19.8 µM (≈ 5.08 µg/mL) | MIC80 (MDR Enterobacteriaceae): ≤ 20 µM | MIC80 [9]: 8.8 µM (≈ 2.26 µg/mL) | MIC80 (MDR E. coli; Ec1 (MDR E. coli)): 5.9 µM (≈ 1.51 µg/mL) | MIC80 (MDR E. coli; Ec2 (MDR E. coli)): 3.9 µM (≈ 1 µg/mL) | MIC80 (MDR E. coli; Ec3 (MDR E. coli)): 5.9 µM (≈ 1.51 µg/mL) | MIC80 (MDR E. coli; Ec4 (MDR E. coli)): 8.8 µM (≈ 2.26 µg/mL) | MIC80 (MDR E. coli; Ec5 (MDR E. coli)): 29.6 µM (≈ 7.59 µg/mL) | MIC80 (Klebsiella pneumoniae; Kp1 (Klebsiella pneumonia)): 5.9 µM (≈ 1.51 µg/mL) | MIC80 (Klebsiella pneumoniae; Kp6 (Klebsiella pneumonia)): 29.6 µM (≈ 7.59 µg/mL) | MIC80 (Citrobacter koseri): 8.8 µM (≈ 2.26 µg/mL) | MIC80 [1]: 55.6 µM (≈ 14.3 µg/mL) | MIC80 E. coli (E. coli (ATCC 35218); E. coli ATCC 35218): 24.1 µM (≈ 6.18 µg/mL) | MIC80 (E. coli (ATCC 35218)): < 30 µM | MIC80 [3]: < 20 µM | MIC80 (S. aureus (ATCC 29213)): 15 µM (≈ 3.84 µg/mL) | CC50 [6]: > 50 µM | MIC80 [8]: 44.4 µM (≈ 11.4 µg/mL)
